According to the supplement of paper PMC10627819:

Columns and labels:
Assay in all cases: fitness (endpoint OD595 vs no drug) (fraction); higher = more growth
[1] = test system: S. pneumoniae D39V
Outline: (§1)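 Cultures at OD595 0.01 were dispensed into 384-well plates in TSB, LB Lennox or CY and incubated at 37 °C. Every 30 min for 14 h, OD595 was read and corrected by the first reading. Fitness is the optical density at entry into stationary phase relative to the robust mean of no-drug control wells, capped at 1.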

[2] = test system: S. aureus Newman
Outline: as §1

[3] = test system: B. subtilis 168
Outline: as §1

CCC[C@@H]1C[C@@H](C(=O)N[C@@H]([C@H]2O[C@H](SC)[C@H](O)[C@@H](O)[C@H]2O)[C@H](C)Cl)N(C)C1 [Clindamycin] + CC[C@H]1OC(=O)[C@H](C)[C@@H](O[C@H]2C[C@@](C)(OC)[C@@H](O)[C@H](C)O2)[C@H](C)[C@@H](O[C@@H]2O[C@H](C)C[C@H](N(C)C)[C@H]2O)[C@](C)(OC)C[C@@H](C)C(=O)[C@H](C)[C@@H](O)[C@]1(C)O [Clarithromycin]
fitness, [1]
Conditions	first compound 0.0125 µg/mL	first compound 0.015 µg/mL	first compound 0.025 µg/mL	first compound 0.03 µg/mL	first compound 0.05 µg/mL	first compound 0.06 µg/mL
partner 0.0625 µg/mL	0.563	–	0.422	–	0.164	–
partner 0.07 µg/mL	–	0.136	–	0.11	–	0.0799
partner 0.125 µg/mL	0.409	–	0.338	–	0.109	–
partner 0.14 µg/mL	–	0.087	–	0.081	–	0.115
partner 0.25 µg/mL	0.181	–	0.121	–	0.0631	–
partner 0.28 µg/mL	–	0.0757	–	0.0789	–	0.0946

fitness, [1], one replicate
Conditions	first compound 0.015 µg/mL	first compound 0.03 µg/mL	first compound 0.06 µg/mL
partner 0.007812 µg/mL	0.728	0.578	0.283
partner 0.01562 µg/mL	0.746	0.637	0.371
partner 0.03125 µg/mL	0.635	0.557	0.175

CC[C@H]1OC(=O)[C@H](C)[C@@H](O[C@H]2C[C@@](C)(OC)[C@@H](O)[C@H](C)O2)[C@H](C)[C@@H](O[C@@H]2O[C@H](C)C[C@H](N(C)C)[C@H]2O)[C@](C)(OC)C[C@@H](C)C(=O)[C@H](C)[C@@H](O)[C@]1(C)O [Clarithromycin] + CO[C@@]12[C@H](COC(N)=O)C3=C(C(=O)C(C)=C(N)C3=O)N1C[C@@H]1N[C@@H]12 [Mitomycin C]
fitness, [1], one replicate
Conditions	first compound 0.007812 µg/mL	first compound 0.01562 µg/mL	first compound 0.03125 µg/mL
partner 0.002 µg/mL	0.798	0.763	0.596
partner 0.004 µg/mL	0.727	0.692	0.539
partner 0.008 µg/mL	0.546	0.558	0.379

fitness, [1]
Conditions	first compound 0.0625 µg/mL	first compound 0.07 µg/mL	first compound 0.125 µg/mL	first compound 0.14 µg/mL	first compound 0.25 µg/mL	first compound 0.28 µg/mL
partner 0.001075 µg/mL	0.654	–	0.345	–	0.084	–
partner 0.002 µg/mL	–	0.139	–	0.0901	–	0.0614
partner 0.00215 µg/mL	0.642	–	0.285	–	0.108	–
partner 0.004 µg/mL	–	0.142	–	0.0707	–	0.0988
partner 0.0043 µg/mL	0.526	–	0.245	–	0.0525	–
partner 0.008 µg/mL	–	0.0708	–	0.039	–	0.0676

N[C@@H]1CONC1=O [Cycloserine D] + CC1(C)S[C@@H]2[C@H](NC(=O)Cc3ccccc3)C(=O)N2[C@H]1C(=O)O [Penicillin G]
fitness, [2]
Conditions	first compound 0.375 µg/mL	first compound 0.75 µg/mL	first compound 1.5 µg/mL
partner 0.0195 µg/mL	0.966	0.916	0.892
partner 0.039 µg/mL	0.922	0.932	0.957
partner 0.078 µg/mL	0.886	0.923	0.854

COc1c(N2C[C@@H]3CCCN[C@@H]3C2)c(F)cc2c(=O)c(C(=O)O)cn(C3CC3)c12 [Moxifloxacin] + CC1(C)S[C@@H]2[C@H](NC(=O)Cc3ccccc3)C(=O)N2[C@H]1C(=O)O [Penicillin G]
fitness, [2]
Conditions	first compound 0.0075 µg/mL	first compound 0.015 µg/mL	first compound 0.03 µg/mL
partner 0.0195 µg/mL	0.722	0.625	0.081
partner 0.039 µg/mL	0.706	–	0.059
partner 0.078 µg/mL	0.721	0.596	0.0633

C/C(=C\C(=O)OCCCCCCCCC(=O)O)C[C@@H]1OC[C@H](C[C@@H]2O[C@H]2[C@@H](C)[C@H](C)O)[C@@H](O)[C@H]1O [Pseudomonic acid] + O=C1CN(/N=C/c2ccc([N+](=O)[O-])o2)C(=O)N1 [Nitrofurantoin]
fitness, [1]
Conditions	partner 1.285 µg/mL	partner 2 µg/mL	partner 2.57 µg/mL	partner 4 µg/mL	partner 8 µg/mL
first compound 0.03 µg/mL	0.916	0.854	0.942	0.872	0.793
first compound 0.06 µg/mL	0.815	0.773	0.819	0.706	0.718
first compound 0.12 µg/mL	0.616	0.563	0.605	0.59	0.515

[1], partner 5.14 µg/mL, one replicate
Conditions	fitness
first compound 0.03 µg/mL	0.912
first compound 0.06 µg/mL	0.8
first compound 0.12 µg/mL	0.556

CC[C@H]1OC(=O)[C@H](C)[C@@H](O[C@H]2C[C@@](C)(OC)[C@@H](O)[C@H](C)O2)[C@H](C)[C@@H](O[C@@H]2O[C@H](C)C[C@H](N(C)C)[C@H]2O)[C@](C)(OC)C[C@@H](C)C(=O)[C@H](C)[C@@H](O)[C@]1(C)O [Clarithromycin] + CO/N=C(\C(=O)N[C@@H]1C(=O)N2C(C(=O)O)=C(COC(C)=O)CS[C@H]12)c1csc(N)n1 [Cefotaxime]
fitness, [1], one replicate
Conditions	first compound 0.007812 µg/mL	first compound 0.01562 µg/mL	first compound 0.03125 µg/mL
partner 0.0018 µg/mL	0.903	0.874	0.652
partner 0.0035 µg/mL	0.922	0.868	0.662
partner 0.007 µg/mL	0.704	0.698	0.596

fitness, [1]
Conditions	first compound 0.0625 µg/mL	first compound 0.07 µg/mL	first compound 0.125 µg/mL	first compound 0.14 µg/mL	first compound 0.25 µg/mL	first compound 0.28 µg/mL
partner 0.0018 µg/mL	0.643	0.155	0.36	0.11	0.134	0.0567
partner 0.0035 µg/mL	0.626	0.149	0.354	0.106	0.136	0.0647
partner 0.007 µg/mL	0.532	0.103	0.296	0.108	0.0943	0.0726

N[C@@H]1CONC1=O [Cycloserine D] + C[C@H]1c2cccc(O)c2C(=O)C2=C(O)[C@]3(O)C(=O)C(C(N)=O)=C(O)[C@@H](N(C)C)[C@@H]3[C@@H](O)[C@@H]21 [Doxycycline]
fitness, [3]
Conditions	first compound 0.125 µg/mL	first compound 0.25 µg/mL	first compound 0.5 µg/mL
partner 0.02 µg/mL	0.909	0.903	0.898
partner 0.04 µg/mL	0.738	0.732	0.709

C/C(=C\C(=O)OCCCCCCCCC(=O)O)C[C@@H]1OC[C@H](C[C@@H]2O[C@H]2[C@@H](C)[C@H](C)O)[C@@H](O)[C@H]1O [Pseudomonic acid] + CC1(C)S[C@@H]2[C@H](NC(=O)Cc3ccccc3)C(=O)N2[C@H]1C(=O)O [Penicillin G]
fitness, [2], one replicate
Conditions	first compound 0.0313 µg/mL	first compound 0.0625 µg/mL	first compound 0.125 µg/mL
partner 0.0195 µg/mL	0.0428	0.0466	0.0353
partner 0.039 µg/mL	0.0545	0.0468	0.0403
partner 0.078 µg/mL	0.069	0.0571	0.0351

N[C@@H]1CONC1=O [Cycloserine D] + CCC(C)C1C(=O)NC(=C)C(=O)NC(C(=O)NC(CSCC(C(=O)N1)NC(=O)/C(=C/C)/NC(=O)C(C(C)CC)N)C(=O)NC2C(SCC(NC(=O)CNC(=O)C3CCCN3C2=O)C(=O)NC(CCCCN)C(=O)NC4C(SCC(NC(=O)CNC(=O)C(NC(=O)C(NC(=O)C(NC(=O)CNC4=O)C)CC(C)C)CCSC)C(=O)NC(CC(=O)N)C(=O)NC(CCSC)C(=O)NC(CCCCN)C(=O)NC5C(SCC6C(=O)NC(C(=O)NC(CSC(C(C(=O)N6)NC(=O)C(NC5=O)C)C)C(=O)NC(CO)C(=O)NC(C(C)CC)C(=O)NC(CC7=CN=CN7)C(=O)NC(C(C)C)C(=O)NC(=C)C(=O)NC(CCCCN)C(=O)O)CC8=CN=CN8)C)C)C)CC(C)C [Nisin]
fitness, [3], main component drawn
Conditions	first compound 0.125 µg/mL	first compound 0.25 µg/mL	first compound 0.5 µg/mL
partner 0.5 µg/mL	0.926	0.867	0.878
partner 1 µg/mL	0.888	0.824	0.81
partner 2 µg/mL	0.589	0.601	0.606

fitness, [3], one replicate, main component drawn
Conditions	partner 1.25 µg/mL	partner 1.6 µg/mL	partner 2.5 µg/mL	partner 3.2 µg/mL	partner 4 µg/mL	partner 5 µg/mL	partner 6.4 µg/mL	partner 8 µg/mL	partner 16 µg/mL
first compound 0.125 µg/mL	≥ 1	0.654	0.708	0.0215	0.0688	0.137	0.0306	0.0472	0.0248
first compound 0.25 µg/mL	≥ 1	0.681	0.698	0.0139	0.0497	0.0686	0.0459	0.0297	0.0048
first compound 0.5 µg/mL	0.985	0.721	0.341	0.0205	0.041	0.0366	0.017	0.0245	0.0169

C[C@@H](O)[C@H]1C(=O)N2C(C(=O)O)=C(SCCNC=N)C[C@H]12 [Imipenem] + CO[C@@]12[C@H](COC(N)=O)C3=C(C(=O)C(C)=C(N)C3=O)N1C[C@@H]1N[C@@H]12 [Mitomycin C]
[1]
Conditions	fitness
first compound 0.005 µg/mL, partner 0.001075 µg/mL	0.906
first compound 0.005 µg/mL, partner 0.00215 µg/mL	0.923
first compound 0.005 µg/mL, partner 0.0043 µg/mL	0.815
first compound 0.0065 µg/mL, partner 0.002 µg/mL	0.797
first compound 0.0065 µg/mL, partner 0.004 µg/mL	0.657
first compound 0.01 µg/mL, partner 0.001075 µg/mL	0.921
first compound 0.01 µg/mL, partner 0.00215 µg/mL	0.876
first compound 0.01 µg/mL, partner 0.0043 µg/mL	0.804
first compound 0.013 µg/mL, partner 0.002 µg/mL	0.583
first compound 0.013 µg/mL, partner 0.004 µg/mL	0.731
first compound 0.013 µg/mL, partner 0.008 µg/mL	0.56
first compound 0.02 µg/mL, partner 0.001075 µg/mL	0.937
first compound 0.02 µg/mL, partner 0.00215 µg/mL	0.919
first compound 0.02 µg/mL, partner 0.0043 µg/mL	0.78
first compound 0.026 µg/mL, partner 0.002 µg/mL	0.737
first compound 0.026 µg/mL, partner 0.004 µg/mL	0.668
first compound 0.026 µg/mL, partner 0.008 µg/mL	0.417

O=C(N[C@H](CO)[C@H](O)c1ccc([N+](=O)[O-])cc1)C(Cl)Cl [Chloramphenicol] + O=C(O)[C@H]1/C(=C/CO)O[C@@H]2CC(=O)N21 [Clavulanic acid]
fitness, [2], one replicate
Conditions	first compound 0.75 µg/mL	first compound 1.5 µg/mL	first compound 3 µg/mL
partner 0.03125 µg/mL	0.891	0.7	0.0864
partner 0.0625 µg/mL	0.889	0.708	–
partner 0.125 µg/mL	0.85	0.494	0.11
